Assay results as given in US11041000B2, “Peptide inhibitors of interleukin-23 receptor and their use to treat inflammatory diseases” (priority 2019, dated 2021).
Numbered stars: 1 amine (or outer) side, 2 acyl side, 3 side chain; on linkers, the order of the positions; unused ones are H or OH. Bridge positions count the residues as written; N and C are the ends. Square brackets hold non-standard residues; d marks the D form. Peptide text beside a SMILES is read from it. Trp(7-Me) = Cc1cccc2c(C[C@H](N)C(=O)O)c[nH]c12; Abu(4-yl) = O=C([C@H](CC[*:3])N[*:1])[*:2]; 2Nal = N[C@@H](Cc1ccc2ccccc2c1)C(=O)O; AEF = NCCOc1ccc(C[C@H](N)C(=O)O)cc1; αMeF = C[C@](N)(Cc1ccccc1)C(=O)O; Cit = NC(=O)NCCC[C@H](N)C(=O)O; Pen = CC(C)(S)[C@H](N)C(=O)O; αMeK = C[C@](N)(CCCCN)C(=O)O; Aib = CC(C)(N)C(=O)O

Tests used:
Assay type in all cases: in vitro ADME
[1] = Stability in simulated intestinal fluid (SIF); settings: simulated intestinal fluid with pancreatin, pH 6.8, 37° C., matrix is 100 fold dilution of standard SIF concentration; for SIF t½: 20 μM; for half-life at 20 μM: read-out: SIF t½ (converted)
Description: SIF was prepared by adding 6.8 g of monobasic potassium phosphate and 10.0 g of pancreatin to 1.0 L of water. After dissolution, the pH was adjusted to 6.8 using NaOH. DMSO stocks (2 mM) were first prepared for the test compounds. Aliquots of the DMSO solutions were dosed into 6 individual tubes, each containing 0.5 mL of SIF, which is pre-warmed to 37° C. The final test compound concentration was 20 μM. The vials were kept in a benchtop Thermomixer® for the duration of the experiment. At each timepoint (0, 5, 10, 20, 40, 60, or 360 minutes or 24 hours), 1.0 mL of acetonitrile containing 1% formic acid was added to one vial to terminate the reaction. Samples were stored at 4° C. until the end of the experiment. After the final timepoint is sampled, the tubes were mixed and then centrifuged at 3,000 rpm for 10 minutes. Aliquots of the supernatant were removed, diluted 1:1 into distilled water containing internal standard, and analyzed by LCMS/MS. Percent remaining at each timepoint was calculated based on the peak area response ratio of test to compound to internal standard. Time 0 was set to 100%, and all later timepoints were calculated relative to time 0. Half-lives were calculated by fitting to a first-order exponential decay equation using Graphpad.

[2] = Stability in human fecal homogenate; settings: 20% fecal homogenate (supernatant), pH 6.8, 20% human fecal homogenate, anaerobic, 37° C., read-out: t½: Human Feces anaerobic (converted)
Description: (§1) Centrifuged the homogenate at 2800×g for 15 min. The supernatant is taken out and used for incubations. […] The final test compound concentration was 20 μM.

[3] = Stability in cynomolgus monkey fecal homogenate; settings: 20% fecal homogenate (supernatant), pH 6.8, 20% cynomolgus monkey fecal homogenate, anaerobic, 37° C., read-out: t½: Monkey Feces anaerobic (converted)
Description: as §1

Stability in rat plasma = settings: both sexes, SD rat plasma, EDTA, 37° C., read-out: t½: Rat Plasma EDTA (converted)

| SMILES | SIF t½ [1] | half-life at 20 μM [2] | half-life at 20 μM [3] | half-life at 20 μM (Stability in rat plasma) | half-life at 20 μM [1] |
| --- | --- | --- | --- | --- | --- |
| CC(=O)NCCCC[C@@H]1NC(=O)[C@H](Cc2c[nH]c3c(C)cccc23)NC(=O)[C@H]([C@@H](C)O)NC(=O)[C@H](CCCCNC(C)=O)NC(=O)[C@@H](NC(C)=O)C(C)(C)SSC(C)(C)[C@@H](C(=O)N[C@@H](Cc2ccc(OCCN)cc2)C(=O)N[C@@H](Cc2ccc3ccccc3c2)C(=O)N[C@@](C)(CCCCN)C(=O)N[C@@H](CCCCNC(C)=O)C(=O)N[C@@H](CC(N)=O)C(=O)N[C@H](CC(C)C)C(N)=O)NC1=O [compound 330] (Ac-[Pen]K(Ac)T[Trp(7-Me)]K(Ac)[Pen][AEF][2Nal][αMeK]K(Ac)N[dL]-NH2; disulfide 1-6) | 24 h | > 1440 min | > 1440 min | > 1440 min |  |
| CC(=O)NCCCC[C@@H]1NC(=O)[C@H](Cc2c[nH]c3c(C)cccc23)NC(=O)[C@H]([C@@H](C)O)NC(=O)[C@H](CC(C)C)NC(=O)[C@@H](NC(C)=O)C(C)(C)SSC(C)(C)[C@@H](C(=O)N[C@@H](Cc2ccc(OCCN)cc2)C(=O)N[C@@H](Cc2ccc3ccccc3c2)C(=O)N[C@@](C)(CCCCN)C(=O)N[C@@H](CCCCNC(C)=O)C(=O)N[C@@H](CC(N)=O)C(=O)N[C@H](CC(C)C)C(N)=O)NC1=O [compound 332] (Ac-[Pen]LT[Trp(7-Me)]K(Ac)[Pen][AEF][2Nal][αMeK]K(Ac)N[dL]-NH2; disulfide 1-6) | 24 h | > 1440 min | > 1440 min | > 1440 min |  |
| CC(=O)NCCCC[C@@H]1NC(=O)[C@H](Cc2c[nH]c3c(C)cccc23)NC(=O)[C@H]([C@@H](C)O)NC(=O)[C@H](CCCNC(N)=O)NC(=O)[C@@H](NC(C)=O)C(C)(C)SSC(C)(C)[C@@H](C(=O)N[C@@H](Cc2ccc(OCCN)cc2)C(=O)N[C@@H](Cc2ccc3ccccc3c2)C(=O)N[C@@](C)(CCCCN)C(=O)N[C@@H](CCCCNC(C)=O)C(=O)N[C@@H](CC(N)=O)C(=O)N[C@H](CC(C)C)C(N)=O)NC1=O [compound 331] (Ac-[Pen][Cit]T[Trp(7-Me)]K(Ac)[Pen][AEF][2Nal][αMeK]K(Ac)N[dL]-NH2; disulfide 1-6) |  | > 1440 min | > 1440 min | > 1440 min | 900 min |
| CC(=O)NCCCC[C@H](NC(=O)[C@](C)(CCCCN)NC(=O)[C@H](Cc1ccc2ccccc2c1)NC(=O)[C@H](Cc1ccc(OCCN)cc1)NC(=O)[C@H]1NC(=O)[C@H](CCCNC(N)=O)NC(=O)[C@H](Cc2c[nH]c3c(C)cccc23)NC(=O)[C@H]([C@@H](C)O)NC(=O)[C@H](CC(N)=O)NC(=O)[C@@H](NC(C)=O)C(C)(C)SSC1(C)C)C(=O)N[C@@H](CC(N)=O)C(=O)NC(C)(C)C(=O)NCC(N)=O [compound 341] (Ac-[Pen]NT[Trp(7-Me)][Cit][Pen][AEF][2Nal][αMeK]K(Ac)N[Aib]G-NH2; disulfide 1-6) |  | > 1440 min | > 1440 min | > 1440 min | 1020 min |
| CC(=O)NCCCC[C@H](NC(=O)[C@](C)(CCCCN)NC(=O)[C@H](Cc1ccc2ccccc2c1)NC(=O)[C@H](Cc1ccc(OCCN)cc1)NC(=O)[C@H]1NC(=O)[C@H](CCC(N)=O)NC(=O)[C@H](Cc2c[nH]c3ccc(C#N)cc23)NC(=O)[C@H]([C@@H](C)O)NC(=O)[C@H](CC(N)=O)NC(=O)[C@@H](NC(C)=O)C(C)(C)SSC1(C)C)C(=O)N[C@@H](CC(N)=O)C(=O)N[C@H](CCCCN)C(N)=O [compound 296] | 24 h | > 1440 min | > 1440 min | > 1440 min |  |
| CC(=O)NCCCC[C@@H]1NC(=O)[C@H](Cc2c[nH]c3c(C)cccc23)NC(=O)[C@H]([C@@H](C)O)NC(=O)CNC(=O)[C@@H](NC(C)=O)C(C)(C)SSC(C)(C)[C@@H](C(=O)N[C@@H](Cc2ccc(OCCN)cc2)C(=O)N[C@@H](Cc2ccc3ccccc3c2)C(=O)N[C@@](C)(CCCCN)C(=O)N[C@@H](CCCCNC(C)=O)C(=O)N[C@@H](CC(N)=O)C(=O)N[C@H](CC(C)C)C(N)=O)NC1=O [compound 329] (Ac-[Pen]GT[Trp(7-Me)]K(Ac)[Pen][AEF][2Nal][αMeK]K(Ac)N[dL]-NH2; disulfide 1-6) |  | > 1440 min | > 1440 min | > 1440 min | 720 min |
| CC(=O)NCCCC[C@@H]1NC(=O)[C@H](Cc2c[nH]c3c(C)cccc23)NC(=O)[C@H]([C@@H](C)O)NC(=O)[C@H](CCC(N)=O)NC(=O)[C@@H](NC(=O)[C@@H](CCCNC(=N)N)NC(C)=O)CCSC[C@@H](C(=O)N[C@@H](Cc2ccc(OCCN)cc2)C(=O)N[C@@H](Cc2ccc3ccccc3c2)C(=O)N[C@@](C)(CCCCN)C(=O)N[C@@H](CCCCNC(C)=O)C(=O)N[C@@H](CC(N)=O)C(=O)N[C@@](C)(Cc2ccccc2)C(N)=O)NC1=O [compound 327] (Ac-[dR][Abu(4-yl)]QT[Trp(7-Me)]K(Ac)C[AEF][2Nal][αMeK]K(Ac)N[αMeF]-NH2; thioether 2-7) | 24 h | > 1440 min | 1440 min | > 1440 min |  |
| CC(=O)NCCCC[C@@H]1NC(=O)[C@H](Cc2c[nH]c3c(C)cccc23)NC(=O)[C@H]([C@@H](C)O)NC(=O)[C@H](CCC(N)=O)NC(=O)[C@@H](NC(=O)[C@@H](CCCNC(=N)N)NC(C)=O)CCSC[C@@H](C(=O)N[C@@H](Cc2ccc(OCCN)cc2)C(=O)N[C@@H](Cc2ccc3ccccc3c2)C(=O)N[C@@](C)(CCCCN)C(=O)N[C@@H](CCCCNC(C)=O)C(=O)N[C@@H](CC(N)=O)C(=O)N[C@H](CCCCN)C(N)=O)NC1=O [compound 324] (Ac-[dR][Abu(4-yl)]QT[Trp(7-Me)]K(Ac)C[AEF][2Nal][αMeK]K(Ac)N[dK]-NH2; thioether 2-7) |  | > 1440 min | 780 min | > 1440 min | 780 min |
| CC(=O)NCCCC[C@H](NC(=O)[C@](C)(CCCCN)NC(=O)[C@H](Cc1ccc2ccccc2c1)NC(=O)[C@H](Cc1ccc(OCCN)cc1)NC(=O)[C@H]1NC(=O)[C@H](CCCNC(N)=O)NC(=O)[C@H](Cc2c[nH]c3c(C)cccc23)NC(=O)[C@H]([C@@H](C)O)NC(=O)[C@H](CC(N)=O)NC(=O)[C@@H](NC(C)=O)C(C)(C)SSC1(C)C)C(=O)N[C@@H](CC(N)=O)C(=O)NC(C)(C)C(=O)N[C@H](CCCCN)C(N)=O [compound 344] (Ac-[Pen]NT[Trp(7-Me)][Cit][Pen][AEF][2Nal][αMeK]K(Ac)N[Aib][dK]-NH2; disulfide 1-6) |  | > 1440 min | > 1440 min | > 1440 min | 540 min |
| CC(=O)NCCCC[C@@H]1NC(=O)[C@H](Cc2c[nH]c3c(C)cccc23)NC(=O)[C@H]([C@@H](C)O)NC(=O)[C@H](CC(N)=O)NC(=O)[C@@H](NC(C)=O)C(C)(C)SSC(C)(C)[C@@H](C(=O)N[C@@H](Cc2ccc(OCCN)cc2)C(=O)N[C@@H](Cc2ccc3ccccc3c2)C(=O)N[C@@](C)(CC(C)C)C(=O)N[C@@H](CCCCNC(C)=O)C(=O)N[C@@H](CC(N)=O)C(=O)N[C@H](CC(N)=O)C(N)=O)NC1=O [compound 354] |  | > 1440 min | > 1440 min | 420 min | 660 min |
| CC(=O)NCCCC[C@H](NC(=O)[C@](C)(CCCCN)NC(=O)[C@H](Cc1ccc2ccccc2c1)NC(=O)[C@H](Cc1ccc(OCCN)cc1)NC(=O)[C@H]1NC(=O)[C@H](CCCCNC(=O)CN)NC(=O)[C@H](Cc2c[nH]c3c(C)cccc23)NC(=O)[C@H]([C@@H](C)O)NC(=O)[C@H](CC(N)=O)NC(=O)[C@@H](NC(C)=O)C(C)(C)SSC1(C)C)C(=O)N[C@@H](CC(N)=O)C(=O)N[C@H](CC(C)C)C(N)=O [compound 320] |  | > 1440 min | 900 min | > 1440 min | 1260 min |
| CCCCC(=O)NCCCC[C@H](NC(=O)[C@](C)(CCCCN)NC(=O)[C@H](Cc1ccc2ccccc2c1)NC(=O)[C@H](Cc1ccc(OCCN)cc1)NC(=O)[C@H]1NC(=O)[C@H](CCCCNC(C)=O)NC(=O)[C@H](Cc2c[nH]c3c(C)cccc23)NC(=O)[C@H]([C@@H](C)O)NC(=O)[C@H](CC(N)=O)NC(=O)[C@@H](NC(C)=O)C(C)(C)SSC1(C)C)C(=O)N[C@@H](CC(N)=O)C(=O)N[C@H](CC(C)C)C(N)=O [compound 361] | 24 h | > 1440 min | > 1440 min | > 1440 min |  |
